The record followed here is patent US20230255964A1, “EXTENDED RELEASE DOSAGE FORMS FOR TYK2 INHIBITORS” (Bristol-Myers Squibb Company, priority 2019, published 2023).

A short description of series [1]: Chemical stability of BMS-986165:HPMCAS-H SDDs upon storage (related substances). Format: physicochemical. Conditions: API standard, no stability condition printed. The procedure: Lots of 25% w/w BMS-986165 SDD with HPMCAS-H were assessed for physical and chemical stability. […] Dissolution performance in the microcentrifuge test was unchanged.
There was no evidence of crystallization by PXRD in any SDD after storage for up to 6 months at 40° C./75%RH open (FIG. 1A and FIG. 1B). DSC data indicated slight changes similar to those observed in 25% w/w BMS-986165 SDD after exposure to 50° C./75%RH or 40° C./75%RH but there was no trend with API loading and the results were considered to reflect an “ageing” or “annealing” effect rather than crystal formation. Scanning electron microscopy (SEM) images confirmed the presence of a single phase homogenous dispersion (FIGS. 2A-C, FIGS. 3A-C, FIGS. 4A-C).

The nature of a further series: pH-dependent solubility. Format: physicochemical. Conditions: pHs > 4. An excerpt:
For immediate release formulations, such pH-dependent properties may result in a reduction in bioavailability when dosed with acid reducing agents, such as, e.g., famotidine or omeprazole. […] While using the higher-energy, amorphous free base form of BMS-986165 helps address the above challenges, formulating amorphous BMS-986165 presents other challenges, including ensuring physical stability of the amorphous form during storage, and maintaining supersaturation of the compound during dissolution in the GI tract.

Turning to `[2H]C([2H])([2H])NC(=O)c1nnc(NC(=O)C2CC2)cc1Nc1cccc(-c2ncn(C)n2)c1OC` [BMS-986165, 6-(cyclopropaneamido)-4-((2-methoxy-3-(1-methyl-1H-1,2,4-triazol-3-yl)phenyl)amino)-N-(methyl-d3)pyridazine-3-carboxamide], in series [1], the “BMS-986165 (relative ret. time 1.00), related substances” value came to 99.48 and the Total imporities >LOQ is 0.52%. As to `[2H]C([2H])([2H])NC(=O)c1nnc(NC(=O)C2CC2)cc1Nc1cccc(-c2ncn(C)n2)c1OC` [BMS-986165 crystalline free base, 6-(cyclopropaneamido)-4-((2-methoxy-3-(1-methyl-1H-1,2,4-triazol-3-yl)phenyl)amino)-N-(methyl-d3)pyridazine-3-carboxamide], the solubility entry in the series “pH-dependent solubility” is “low solubility”.
